Measurements as given in publication PMC11109052, “Metabolism characterization and toxicity of N-hydap, a marine candidate drug for lung cancer therapy by LC–MS method” (Natural Products and Bioprospecting, 2024).
Entries after “also recorded” stand apart in the source; their conditions may differ.

Key:
[1] = test system: Cyp3a11; experiment: Real-time PCR mRNA level after 7 days gavage: Cyp3a11 (human homolog CYP3A4); assay type: in vivo, mice; set-up: key to CYP3A4 mNA expression: ↑: up-regulation; ↓: down-regulation; –: no change
Description: (§1) Mice were randomly divided into four groups, with eight animals in each group. The mice received oral pretreatment with N-hydap for 7 days at doses of 2, 5, and 10 mg/kg/day, which were considered as the low dose, medium dose, and high dose, respectively. Correspondingly, the control group received PBS. On the 8th day, the liver and kidneys were removed, and organs from eight mice per group were combined to prepare MLMs and MKMs using the detailed procedures above. Subsequently, we determined the activity of CYP and UGT enzymes by specific substrate metabolized with MLMs (0.5 mg/mL) and MKMs (0.2 mg/mL) in vitro. Specifically, the following selective substrates were used for the respective enzymes: PH (1 μM) for CYP1A2, DIC (1 μM) for CYP2C9, MP (90 μM) for CYP2C19, DM (1 μM) for CYP2D6, CZX (10 μM) for CYP2E1, Tes (1 μM) for CYP3A4, SN38 (1 μM) for UGT1A1, CACD (100 μM) for UGT1A3, Sero (20 μM) for UGT1A6, and Prop (1 μM) for UGT1A9. All substrates were dissolved in methanol or DMSO. The incubation procedure was carried out as mentioned above, and the reaction was terminated with VER (20 ng/mL) in ESI+ mode and CLP (200 ng/mL) in ESI− mode. In the ex vivo experiments, the activity of enzymes was measured by quantifying the production of various metabolites (nM/mg protein/min). The metabolites and their corresponding enzymes are as follows: APAP from PH, 4-OH-DIC from DIC, 4-OH-MP from MP, DXO from DM, 6-OH-CZX from CZX, 6-OH-Tes from Tes, SN38-G from SN38, CACD-G from CACD, Sero-G from Sero, Prop-G from Prop. The measurements were performed using multiple reaction monitoring (MRM) transitions, which are specific mass spectrometry transitions used for quantification. The optimized parameters for each metabolite, such as declustering potential and collision energy, were described in Supplementary Table 1. All experiments were conducted in triplicate, to ensure accuracy and reproducibility.
Total RNA from liver and kidney samples taken after 7 days of N-hydap gavage was extracted using the Animal Total RNA Isolation Kit (Foregene, Chengdu, Sichuan, China) following the manufacturer’s instructions. The concentrations of total RNA were determined by a nucleic acid concentration tester at 260/280 nm. A HiScript III RT SuperMix for qPCR (+ gDNA wiper) (Vazyme, Nanjing, Jiangsu, China) was used to measure the concentration of the synthesized cDNA. ChamQ SYBR qPCR Master Mix (Vazyme, Nanjing, Jiangsu, China) and detection were performed using a Light Cycler 480 II (ROCHE, Basel, Switzerland). Real-time PCR was used to analyze the relative mRNA levels of Cyp1a2, Cyp2b10, Cyp2c39, Cyp2d22, Cyp2e1, Cyp3a11, Ugt1a1, Ugt1a6a and Ugt1a9 (human homologs: CYP1A2, CYP2B6, CYP2C19, CYP2D6, CYP2E1, CYP3A4, UGT1A1, UGT1A6, and UGT1A9) in the liver, kidneys, and intestines. […]

[2] = test system: Ugt1a6a; experiment: Real-time PCR mRNA level after 7 days gavage: Ugt1a6a (human homolog UGT1A6); assay type: in vivo, mice; set-up: key to UGT1A6 mNA expression: ↑: up-regulation; ↓: down-regulation; –: no change
Description: as §1, with “The optimized parameters for each metabolite, such as declustering potential and collision energy, were described in Supplementary Table 1. All experiments were conducted in triplicate, to ensure accuracy and reproducibility.” left out
(§2) Total RNA from liver and kidney samples taken after 7 days of N-hydap gavage was extracted using the Animal Total RNA Isolation Kit (Foregene, Chengdu, Sichuan, China) following the manufacturer’s instructions. The concentrations of total RNA were determined by a nucleic acid concentration tester at 260/280 nm. […]

[3] = test system: Ugt1a9; experiment: Real-time PCR mRNA level after 7 days gavage: Ugt1a9; assay type: in vivo, mice; set-up: key to UGT1A9 mNA expression: ↑: up-regulation; ↓: down-regulation; –: no change
Description: as §1, with “The optimized parameters for each metabolite, such as declustering potential and collision energy, were described in Supplementary Table 1. All experiments were conducted in triplicate, to ensure accuracy and reproducibility.” left out
as §2

[4] = test system: Cyp2e1; experiment: DME activity ex vivo in MLMs and MKMs: CYP2E1 (6-OH-CZX from CZX); set-up: species or system mice; key: ↑: up-regulation; ↓: down-regulation; –: no change
Description: as §1, with “The incubation procedure was carried out as mentioned above, and the reaction was terminated with VER (20 ng/mL) in ESI+ mode and CLP (200 ng/mL) in ESI− mode.” left out, “The metabolites and their corresponding enzymes are as follows: APAP from PH, 4-OH-DIC from DIC, 4-OH-MP from MP, DXO from DM, 6-OH-CZX from CZX, 6-OH-Tes from Tes, SN38-G from SN38, CACD-G from CACD, Sero-G from Sero, Prop-G from Prop.” left out, “The optimized parameters for each metabolite, such as declustering potential and collision energy, were described in Supplementary Table 1. All experiments were conducted in triplicate, to ensure accuracy and reproducibility.” left out

[5] = test system: CYP2B6; experiment: Western blot protein level after 7 days gavage: CYP2B6; assay type: in vivo; conditions: mice, p.o. 7 days; liver
Description: (§3) Mice were randomly divided into four groups, with eight animals in each group. The mice received oral pretreatment with N-hydap for 7 days at doses of 2, 5, and 10 mg/kg/day, which were considered as the low dose, medium dose, and high dose, respectively. Correspondingly, the control group received PBS. On the 8th day, the liver and kidneys were removed, and organs from eight mice per group were combined to prepare MLMs and MKMs using the detailed procedures above. Subsequently, we determined the activity of CYP and UGT enzymes by specific substrate metabolized with MLMs (0.5 mg/mL) and MKMs (0.2 mg/mL) in vitro. […] In the ex vivo experiments, the activity of enzymes was measured by quantifying the production of various metabolites (nM/mg protein/min). […] The measurements were performed using multiple reaction monitoring (MRM) transitions, which are specific mass spectrometry transitions used for quantification. […]
After 7 days of N-hydap gavage, the liver and kidney tissues were lysed using RIPA buffer supplemented with a 1% protease inhibitor cocktail. […] Western blot signals were detected using an ECL chemiluminescence detection agent. The relative intensity of each protein band was scanned and quantified using Image J software.

[6] = test system: Cyp2b10; experiment: Real-time PCR mRNA level after 7 days gavage: Cyp2b10; assay type: in vivo; conditions: mice, 2, 5, 10 mg/kg p.o. 7 days
Description: as §3, §2

[7] = test system: Ugt1a1; experiment: DME activity ex vivo in MLMs and MKMs: UGT1A1 (SN38-G from SN38); set-up: species or system mice; key to UGT1A1 Enzymatic activity: ↑: up-regulation; ↓: down-regulation; –: no change
Description: as §1

[8] = test system: CYP2C9; experiment: DME activity ex vivo in MLMs and MKMs: CYP2C9 (4-OH-DIC from DIC); conditions: liver microsomes of mice pretreated 7 days p.o.
Description: as §3, with “vitro. Specifically, the following selective substrates were used for the respective enzymes: PH (1 μM) for CYP1A2, DIC (1 μM) for CYP2C9, MP (90 μM) for CYP2C19, DM (1 μM) for CYP2D6, CZX (10 μM) for CYP2E1, Tes (1 μM) for CYP3A4, SN38 (1 μM) for UGT1A1, CACD (100 μM) for UGT1A3, Sero (20 μM) for UGT1A6, and Prop (1 μM) for UGT1A9. All substrates were dissolved in methanol or DMSO.” for “vitro.”

[9] = test system: Cyp1a2; experiment: DME activity ex vivo in MLMs and MKMs: CYP1A2 (APAP from PH); set-up: species or system mice; key to CYP1A2 Enzymatic activity: ↑: up-regulation; ↓: down-regulation; –: no change
Description: as §1

[10] = test system: UGT1A3; experiment: DME activity ex vivo in MLMs and MKMs: UGT1A3 (CDCA-G); set-up: species or system mice
Description: as §3, with “vitro. Specifically, the following selective substrates were used for the respective enzymes: PH (1 μM) for CYP1A2, DIC (1 μM) for CYP2C9, MP (90 μM) for CYP2C19, DM (1 μM) for CYP2D6, CZX (10 μM) for CYP2E1, Tes (1 μM) for CYP3A4, SN38 (1 μM) for UGT1A1, CACD (100 μM) for UGT1A3, Sero (20 μM) for UGT1A6, and Prop (1 μM) for UGT1A9. All substrates were dissolved in methanol or DMSO.” for “vitro.”

[11] = test system: normal wild-type mice; experiment: Toxicity of 7-day gavage in normal wild-type mice
Description: During the continuous gavage administration of N-hydap (2, 5, 10 mg/kg) to mice, their body weight was monitored daily and the mice’s activity and mental state were closely observed. […] To assess the extent of injury in the heart, liver, and kidneys, cardiac LDH, plasma ALT, AST, and Cr were measured as biochemical markers (Fig. 7B–D). Additionally, blood routines were examined, including RBC (10^12/L), HCT (%), HGB (g/dL), WBC (10^9/L), PLT (10^9/L), and Lymphocytes (%), which were used as indicators to evaluate spleen toxicity (Fig. 7E). […] To investigate this further, HE staining on tissue sections was performed from both the control group and the highest dose group (10 mg/kg).
Fig. 7 Normal wild-type mice were administered by N-hydap (2, 5, 10 mg/kg) gavage for 7 days. A Changes in body weight in mice. B Cardiac LDH level. C, D Plasma ALT, AST and Cr levels. E Blood routine indicators including RBC, HCT, HGB, WBC, PLT and Lymphocytes. F H&E staining of sections of primary organs, original magnification ×200 (mean ± S.D, n = 5–6/group). ns, no significance, were compared with control group.

[12] = mice, 2, 5, 10 mg/kg p.o. 7 days, liver and kidneys
[13] = mice, 2, 5, 10 mg/kg gavage, 7 days

## CC1CCC2C(C=CC(C)C2C(=O)c2c(O)c(C3(O)CCC(O)C4OC43)cn(O)c2=O)C1 (stereo not drawn) [N-hydap, N-Hydroxyapiosporamide]
[1]; Kidney
  CYP3A4 mNA expression: ↑
[1]; Liver
  CYP3A4 mNA expression: ↑
[1]; mice, 2, 5, 10 mg/kg p.o. 7 days, intestines
  mRNA levels of Cyp3a11: slight reduction
[1]; [12]
  increase of mRNA levels of Cyp3a11: 78%-160%
[2]; Kidney
  UGT1A6 mNA expression: ↑
[2]; Liver
  UGT1A6 mNA expression: ↑
[2]; [12]
  mRNA levels of Ugt1a6a: modest increase
[3]; Kidney
  UGT1A9 mNA expression: –
[3]; Liver
  UGT1A9 mNA expression: –
[3]; mice, 2, 5, 10 mg/kg p.o. 7 days
  mRNA levels of Ugt1a9: No significant changes
[4]; Kidney
  CYP2E1 Enzymatic activity: ↑
[4]; Liver
  CYP2E1 Enzymatic activity: ↓
[5]
  increase of protein levels of CYP2B6: 92%
[6]; kidneys
  mRNA levels of Cyp2b10: slight reduction
[6]; liver
  decrease of mRNA levels of Cyp2b10: 35%
[7]; Kidney
  UGT1A1 Enzymatic activity: –
[7]; Liver
  UGT1A1 Enzymatic activity: ↑
[7]; MLMs, range stated jointly for APAP, SN38-G, 6-OH-Tes and CDCA-G
  elevation of formation rate of SN38-G: 12%-331%
[8]
  reduction of formation rate of 4-OH-DIC vs control: 70%
[9]; Kidney
  CYP1A2 Enzymatic activity: ↑
[9]; Liver
  CYP1A2 Enzymatic activity: –
[9]; MKMs, range stated jointly for APAP, SN38-G, 6-OH-Tes and CDCA-G
  elevation of formation rate of APAP: 12%-331%
[10]; MLMs and MKMs, range stated jointly for APAP, SN38-G, 6-OH-Tes and CDCA-G
  elevation of formation rate of CDCA-G: 12%-331%
[10]; after 7 days of oral administration
  catalytic activity of UGT1A3: significantly increased
[11]; Table 4 experimental column
  Toxicity LD50, experimental results: High security
[11]; [13]
  behavior during gavage: did not exhibit any abnormal behavior
  biochemical markers (cardiac LDH, plasma ALT, AST, Cr) and blood routine indicators vs control: did not show any significant differences
  body weight: No significant changes
[11]; mice, highest dose group 10 mg/kg, 7 days
  HE staining of important tissues and organs: maintained their structural integrity
[11]; normal wild mice, 2, 5, 10 mg/kg, 7 days
  toxicity of continuous gavage at normal doses: did not result in significant toxicity; also recorded: did not exhibit any toxicity
